In the data set the test system is spontaneously hypertensive rat (SHR). Description: Chronic development of arteriosclerosis (abdominal aorta morphometry, tail cuff blood pressure), chronic oral administration, SHR. It is filed as in vivo, spontaneously hypertensive rats (SHR). The settings on record: 0.9 mg/kg/day oral; weight taken at 12, 27 and 47 weeks old (data not shown). The protocol: Five weeks old WKY and SHR were housed four to a cage. Four SHR and four WKY were orally administered 0.9 mg/kg/day of des-Aspartate-angiotensin I in 0.5 ml of saline daily for 47 weeks. Four SHR and another four WKY served as control animals and were administered 0.5 ml saline solution daily for 47 weeks. The weight of the animals were determined weekly till 12 weeks old, fortnightly till 27 weeks old and monthly till 47 weeks old. The dose of des-Aspartate-angiotensin I was adjusted to match the increase in weight as the animals grew. The dose of 0.9 mg/kg/day was calculated based on the maximum effective oral anti-cardiac hypertrophic dose (250 nmole per rat of average weight of 325 g) in the previous patent.
The blood pressure of the animals was determined by the tail cuff method on the 46th week of treatment. On the 47th week, animals were anaesthetized with chloral hydrate and a 3-cm section (measured from the left renal artery) of the abdominal aorta was removed and fixed in 4% paraformaldehyde and 1% glutaraldehyde. The aorta was processed for paraffin embedment. 10-μ thick sections were prepared and stained with toluidine blue. Fifty such sections, cut from the distal end of the artery, were used for quantitation. The area of the medial smooth muscle cells was quantitated morphometrically as described above. The area was converted to volume by multiplying by 10μ.

Drawing on US6100237A, “Use of des-Aspartate-angiotensin I as an agent for the treatment and prevention of neointima formation, restenosis, and arteriosclerosis” (National University of Singapore, priority 1997, dated 2000), this text covers animal weight for one sequence.

No end group written: not given here.

Consider RVYIHPFHL [des-Aspartate-angiotensin I], for which the animal weight entry is recorded as “no significant effect”.
